Data taken from PubChem BioAssay AID330 (DTP/NCI, 2004).
“And” between values parts separate entries of the source, which are not always exact repeats. Identical values can stand only once. Inconclusive results and toxic doses are left out. The calls were made as follows: active = survival T/C of 150% or more; inactive = T/C below 125% in these data.

Tested on: P388 leukemia ip, CD2F1 mice, survival T/C
Experiment: NCI In Vivo Anticancer Drug Screen. Data for tumor model P388 Leukemia (intraperitoneal) in CD2F1 (CDF1) mice
Conditions: endpoint: median survival time, higher = longer survival
Method in brief: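 Mice carrying the transplanted tumor received test compound or vehicle. Survival was recorded in each group, and the value is the treated-group measurement divided by that of the vehicle-treated control group.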

[1] = dose: 50.0 mg/kg/injection, schedule: Q04DX003 (ip), vehicle: saline with Tween-80
[2] = dose: 100.0 mg/kg/injection, schedule: Q04DX003 (ip), vehicle: saline with Tween-80
[3] = dose: 200.0 mg/kg/injection, schedule: Q04DX003 (ip), vehicle: saline with Tween-80
[4] = dose: 50.0 mg/kg/injection, schedule: Q01DX005 (ip), vehicle: saline with Tween-80
[5] = dose: 100.0 mg/kg/injection, schedule: Q01DX005 (ip), vehicle: saline with Tween-80
[6] = dose: 200.0 mg/kg/injection, schedule: Q01DX005 (ip), vehicle: saline with Tween-80
[7] = dose: 60.0 mg/kg/injection, schedule: Q01DX005 (ip), vehicle: saline with Tween-80
[8] = dose: 120.0 mg/kg/injection, schedule: Q01DX005 (ip), vehicle: saline with Tween-80
[9] = dose: 240.0 mg/kg/injection, schedule: Q01DX005 (ip), vehicle: saline with Tween-80

Measured: T/C

C1C2CC3C1C1OC3C21
inactive: dose: 60.0 mg/kg/injection, schedule: Q01DX005 (ip), vehicle: Klucel (hydroxypropylcellulose) (HPC) 100 % of control | dose: 120.0 mg/kg/injection, schedule: Q01DX005 (ip), vehicle: Klucel (hydroxypropylcellulose) (HPC) 99 % of control | dose: 240.0 mg/kg/injection, schedule: Q01DX005 (ip), vehicle: Klucel (hydroxypropylcellulose) (HPC) 100 % of control

O=c1[nH]c(=O)n(C2CC(O)C(CO)O2)cc1O (stereo not drawn)
inactive: [1] 100 % of control | [2] 101 % of control | [3] 99 % of control | dose: 400.0 mg/kg/injection, schedule: Q04DX003 (ip), vehicle: saline with Tween-80 101 % of control

C[N+](C)(C)[C@H]1CCCC[C@@H]1O
inactive: dose: 50.0 mg/kg/injection, schedule: Q01DX005 (ip), vehicle: distilled water + alcohol 104 % of control | dose: 100.0 mg/kg/injection, schedule: Q01DX005 (ip), vehicle: distilled water + alcohol 99 % of control | dose: 200.0 mg/kg/injection, schedule: Q01DX005 (ip), vehicle: distilled water + alcohol 105 % of control

CC(C)(C)OC(=O)NC(Cc1ccc(OCc2ccccc2)cc1)C(=O)O (stereo not drawn)
inactive: [4] 104 % of control | [5] 106 % of control | [6] 97 % of control

CNC(=O)OCc1c(COC(=O)NC)c(-c2ccco2)n2c1CCC2
inactive: dose: 3.75 mg/kg/injection, schedule: Q01DX005 (ip), vehicle: saline 100 % of control | dose: 7.5 mg/kg/injection, schedule: Q01DX005 (ip), vehicle: saline 101 % of control | dose: 15.0 mg/kg/injection, schedule: Q01DX005 (ip), vehicle: saline 120 % of control

COC(=O)[C@@H]1CC/C(=C(\C#N)C(=O)OC(C)(C)C)N1
inactive: [7] 95 % of control | [8] 96 % of control | [9] 91 % of control

C=CCNc1nc2c(s1)c(C)c(O)c1ccccc12
inactive: [7] 93 % of control | [8] 96 % of control | [9] 106 % of control

CSCCC(NC(=O)C(C)NC(=O)OCc1ccccc1)C(=O)O (stereo not drawn)
inactive: dose: 50.0 mg/kg/injection, schedule: Q01DX005 (ip), vehicle: Klucel (hydroxypropylcellulose) (HPC) 99 % of control | dose: 100.0 mg/kg/injection, schedule: Q01DX005 (ip), vehicle: Klucel (hydroxypropylcellulose) (HPC) 101 % of control | dose: 200.0 mg/kg/injection, schedule: Q01DX005 (ip), vehicle: Klucel (hydroxypropylcellulose) (HPC) 95 % of control

COC(=O)NC1C(=O)OC(C2OC2(C)C)C1(C)C (stereo not drawn)
inactive: [7] 101 % of control and 100 % of control | [8] 101 % of control and 99 % of control | [9] 100 % of control and 99 % of control

O=C1N=C2SCCCN2C1(c1ccccc1)c1ccccc1
inactive: [7] 97 % of control | [8] 92 % of control | [9] 100 % of control

C[C@@H]1C[C@@H]2c3cccc4c3c(cn4CO)C[C@H]2N(C)C1
inactive: [4] 100 % of control | [5] 100 % of control | [6] 107 % of control

C=C(C)C(=O)NCC(=O)NCC(=O)NCC(=O)Oc1ccc([N+](=O)[O-])cc1
inactive: [1] 100 % of control | [2] 90 % of control | [3] 99 % of control

O=[N+]([O-])c1ccc(N2CCOCC2)c2c1no[n+]2[O-]
inactive: dose: 8.0 mg/kg/injection, schedule: Q04DX003 (ip), vehicle: suspension in saline 98 % of control | dose: 16.0 mg/kg/injection, schedule: Q04DX003 (ip), vehicle: suspension in saline 105 % of control | dose: 32.0 mg/kg/injection, schedule: Q04DX003 (ip), vehicle: suspension in saline 99 % of control | dose: 64.0 mg/kg/injection, schedule: Q04DX003 (ip), vehicle: suspension in saline 123 % of control

COC(=O)C(=CNC(N)=O)C(=O)OC
inactive: [7] 96 % of control | [8] 100 % of control | [9] 94 % of control

CC(C)=CCCC(C)(OC1OC(CO)C(O)C(O)C1O)C1CCC2(C)C1C(O)CC1C3(C)CCC(O)C(C)(C)C3C(OC3OC(CO)C(O)C(O)C3OC3OC(C)C(O)C(O)C3O)CC12C (stereo not drawn) (tested in a mixture with another compound)
inactive: dose: 18.75 mg/kg/injection, schedule: Q01DX009 (ip), vehicle: Klucel (hydroxypropylcellulose) (HPC) 101 % of control | dose: 37.5 mg/kg/injection, schedule: Q01DX009 (ip), vehicle: Klucel (hydroxypropylcellulose) (HPC) 101 % of control | dose: 75.0 mg/kg/injection, schedule: Q01DX009 (ip), vehicle: Klucel (hydroxypropylcellulose) (HPC) 100 % of control | dose: 150.0 mg/kg/injection, schedule: Q01DX009 (ip), vehicle: Klucel (hydroxypropylcellulose) (HPC) 100 % of control

CC1=CC=CN2CCC(=O)N=C12
inactive: dose: 50.0 mg/kg/injection, schedule: Q01DX005 (ip), vehicle: saline 113 % of control | dose: 100.0 mg/kg/injection, schedule: Q01DX005 (ip), vehicle: saline 101 % of control | dose: 200.0 mg/kg/injection, schedule: Q01DX005 (ip), vehicle: saline 101 % of control

O=C(CNC(=O)c1ccccc1)N/N=C\c1c[nH]c2ccccc12
inactive: [7] 101 % of control | [8] 100 % of control | [9] 96 % of control

C/C(=C/Cc1ccccc1)C(=O)O
inactive: dose: 100.0 mg/kg/injection, schedule: Q01DX001 (ip), vehicle: saline with Tween-80 108 % of control | dose: 200.0 mg/kg/injection, schedule: Q01DX001 (ip), vehicle: saline with Tween-80 108 % of control | dose: 400.0 mg/kg/injection, schedule: Q01DX001 (ip), vehicle: saline with Tween-80 99 % of control

Nc1ncnc2ccc(Cl)cc12
inactive: dose: 50.0 mg/kg/injection, schedule: Q01DX009 (ip), vehicle: saline with Tween-80 105 % of control | dose: 100.0 mg/kg/injection, schedule: Q01DX009 (ip), vehicle: saline with Tween-80 100 % of control | dose: 200.0 mg/kg/injection, schedule: Q01DX009 (ip), vehicle: saline with Tween-80 107 % of control

C=CCc1ccccc1C1=[N+](C)C(C)(C)CO1
inactive: dose: 25.0 mg/kg/injection, schedule: Q04DX002 (ip), vehicle: saline with Tween-80 100 % of control | dose: 50.0 mg/kg/injection, schedule: Q04DX002 (ip), vehicle: saline with Tween-80 102 % of control | dose: 100.0 mg/kg/injection, schedule: Q04DX002 (ip), vehicle: saline with Tween-80 97 % of control

C=CC(C)(CCC1C(C)=CCC2C(C)(C)CCCC12C)OC1OC(C)C(O)C(O)C1O (stereo not drawn)
inactive: dose: 19.0 mg/kg/injection, schedule: Q01DX005 (ip), vehicle: Klucel (hydroxypropylcellulose) (HPC) 102 % of control | dose: 20.0 mg/kg/injection, schedule: Q01DX005 (ip), vehicle: Klucel (hydroxypropylcellulose) (HPC) 97 % of control | dose: 21.0 mg/kg/injection, schedule: Q01DX005 (ip), vehicle: Klucel (hydroxypropylcellulose) (HPC) 100 % of control | dose: 38.0 mg/kg/injection, schedule: Q01DX005 (ip), vehicle: Klucel (hydroxypropylcellulose) (HPC) 101 % of control | dose: 40.0 mg/kg/injection, schedule: Q01DX005 (ip), vehicle: Klucel (hydroxypropylcellulose) (HPC) 103 % of control | dose: 42.0 mg/kg/injection, schedule: Q01DX005 (ip), vehicle: Klucel (hydroxypropylcellulose) (HPC) 98 % of control | dose: 76.0 mg/kg/injection, schedule: Q01DX005 (ip), vehicle: Klucel (hydroxypropylcellulose) (HPC) 98 % of control | dose: 80.0 mg/kg/injection, schedule: Q01DX005 (ip), vehicle: Klucel (hydroxypropylcellulose) (HPC) 98 % of control | dose: 84.0 mg/kg/injection, schedule: Q01DX005 (ip), vehicle: Klucel (hydroxypropylcellulose) (HPC) 102 % of control | dose: 152.0 mg/kg/injection, schedule: Q01DX005 (ip), vehicle: Klucel (hydroxypropylcellulose) (HPC) 108 % of control | dose: 160.0 mg/kg/injection, schedule: Q01DX005 (ip), vehicle: Klucel (hydroxypropylcellulose) (HPC) 93 % of control | dose: 168.0 mg/kg/injection, schedule: Q01DX005 (ip), vehicle: Klucel (hydroxypropylcellulose) (HPC) 98 % of control

CCCCCCCC1SCC(=O)N1c1nncs1 (stereo not drawn)
inactive: [7] 94 % of control | [8] 94 % of control | [9] 91 % of control
